Test results: ChEMBL document CHEMBL3085752, “Novel isatin-based hydroxamic acids as histone deacetylase inhibitors and antitumor agents” (Eur J Med Chem, 2013)
The source made the active and inactive calls. The rule behind the calls is not given here.

Tests used:
[1] = molecular target: T1, Histone deacetylase (Homo sapiens) (UniProt Q13547+O15379+Q9UBN7+Q92769+Q9UQL6+Q8WUI4+Q9BY41+Q96DB2+P56524+Q9UKV0+Q969S8); assay: Inhibition of HDAC in human SW620 cells assessed as acetylated histone-H4 level at 1 uM after 24 hrs by Western blotting analysis; type: cell-based; details: SW-620
[2] = tested on: PC-3; assay: Antiproliferative activity against human PC3 cells after 48 hrs by SRB assay; type: functional, cell-based; details: PC-3, 48 h
[3] = tested on: SW-620; assay: Antiproliferative activity against human SW620 cells at 30 uM after 48 hrs by SRB assay; type: functional, cell-based
[4] = tested on: SW-620; assay: Antiproliferative activity against human SW620 cells after 48 hrs by SRB assay; type: functional, cell-based; details: SW-620, 48 h
[5] = molecular target: T1, Histone deacetylase (Homo sapiens); assay: Inhibition of HDAC in human SW620 cells assessed as acetylated histone-H3 level at 1 uM after 24 hrs by Western blotting analysis; type: cell-based; details: SW-620
[6] = tested on: ASPC1; assay: Antiproliferative activity against human AsPC1 cells after 48 hrs by SRB assay; type: functional, cell-based; details: ASPC1, 48 h
[7] = tested on: NCI-H460; assay: Antiproliferative activity against human NCI-H460 cells after 48 hrs by SRB assay; type: functional, cell-based; details: NCI-H460, 48 h
[8] = tested on: MCF7; assay: Antiproliferative activity against human MCF7 cells after 48 hrs by SRB assay; type: functional, cell-based; details: MCF7, 48 h
[9] = tested on: SW-620; assay: Ratio of SAHA IC50 to compound IC50 for human SW620 cells; type: functional
[10] = tested on: ASPC1; assay: Ratio of SAHA IC50 to compound IC50 for human AsPC1 cells; type: functional

SMILES	inhibition [1]	IC50 [2] [nM]	Activity [3]	IC50 [4] [nM]	inhibition [5]	IC50 [6] [nM]	IC50 [7] [nM]	IC50 [8] [nM]	Ratio IC50 [9]	Ratio IC50 [10]
CO/N=C1/C(=O)N(CCCCCCC(=O)NO)c2ccc(Br)cc21	Active	8910	Active	2320	Active	1680	2900	7790		
CO/N=C1/C(=O)N(CCCCCCC(=O)NO)c2c(Cl)cccc21	Active	290		260	Active	630	350	340		
CO/N=C1/C(=O)N(CCCCCCC(=O)NO)c2ccccc21	Active	1670	Active	730	Active	1220	750	1710		
Cc1ccc2c(c1)/C(=N/O)C(=O)N2CCCCCCC(=O)NO	Active	620	Active	990	Active	2440	2090	1190		
O=C(CCCCCCN1C(=O)/C(=N\O)c2cc(F)ccc21)NO	Active	2730	Active	110	Active	1720	1500	1550	30	
CO/N=C1/C(=O)N(CCCCCCC(=O)NO)c2ccc(F)cc21	Active	1150	Active	1110	Active	970	970	2420		
O=C(CCCCCCN1C(=O)/C(=N\O)c2cc([N+](=O)[O-])ccc21)NO	inactive	19700	Active	3390	inactive	4680	7710	1340		
O=C(CCCCCCN1C(=O)/C(=N\O)c2cc(Br)ccc21)NO	Active	2210	Active	290	Active	80	970	1770		45
CO/N=C1/C(=O)N(CCCCCCC(=O)NO)c2ccc(Cl)cc21	Active	2330	Active	490	Active	490	760	1560		
CO/N=C1\C(=O)N(CCCCCCC(=O)NO)c2ccc([N+](=O)[O-])cc21	inactive	1690	Active	1350	inactive	840	14300	940		
CO/N=C1/C(=O)N(CCCCCCC(=O)NO)c2ccc(C)cc21	inactive	350	Active	1070	inactive	5480	1190	16700		
O=C(CCCCCCN1C(=O)/C(=N\O)c2cccc(Cl)c21)NO	Active	1570		1050	Active	1820	1350	1740		
O=C(CCCCCCN1C(=O)/C(=N\O)c2ccccc21)NO	Active	980	Active	640	Active	1100	890	790		
O=C(CCCCCCN1C(=O)/C(=N\O)c2cc(Cl)ccc21)NO	Active	850	Active	650	Active	1860	850	680		
